Results on eight compounds are retold here after patent US20230395193A1 (priority 2020, published 2023).

The test system of the first experiment is SARS-CoV-2. Format: cell-based.
Settings: not given
In the case of `COc1ccc2c(c1)c(CC(=O)O)c(C)n2C(=O)c1ccc(Cl)cc1` [indomethacin], the “Inhibition of SARS-CoV-2 in vitro (in words)” value is on record as “did not inhibit SARS-CoV-2 in vitro at reasonable antiviral concentrations”.

A further experiment has as its system SARS-CoV-2. Format: cell-based.
Settings: not given
This is another data set of the same source.
In the case of `CCCCc1oc2ccccc2c1C(=O)c1cc(I)c(OCCN(CC)CC)c(I)c1` [amiodarone], the “Antiviral activity against SARS-CoV-2 (in words)” value is reported as “inhibited”.

For the next experiment, the system named is SARS-CoV-1 (Urbani). Format: cell-based.
Settings: not given
As to `CCCCc1oc2ccccc2c1C(=O)c1cc(I)c(OCCN(CC)CC)c(I)c1` [amiodarone], the “Antiviral activity against SARS-CoV-1 (in words)” value is recorded as “inhibited”.

A further experiment deals with SARS-CoV-1, MERS-CoV and SARS-CoV-2 proteins in HEK293T cells. On the set-up: species or system human.
Settings: not given
In turn, E-Q8WVM8 showed an MIST_MERS of 0.7214, an MIST_SARS1 of 0.3063, an MIST_SARS2 of 0 and a Saint_MERS of 0.95. The Saint_SARS1 was 0 and the Saint_SARS2 is on record as 0.

E-Q9UBS3 showed an MIST_MERS of 0.9729, an MIST_SARS1 of 0, an MIST_SARS2 of 0 and a Saint_MERS of 0.98. Further, the Saint_SARS1 is 0 and the Saint_SARS2 is 0.

Compound E-Q9ULP9 showed an MIST_MERS of 0, an MIST_SARS1 of 0.9165, an MIST_SARS2 of 0 and a Saint_MERS of 0. For the same compound, the Saint_SARS1 turned out to be 0.97 and the Saint_SARS2 is recorded as 0.

M-Q8TEM1 gave an MIST_MERS of 0.7258, an MIST_SARS1 of 0.02986, an MIST_SARS2 of 0 and a Saint_MERS of 1. The Saint_SARS1 amounted to 0 and the Saint_SARS2 stood at 0.

For the compound M-Q9NVH2, the MIST_MERS was 0, the MIST_SARS1 is 0.8943, the MIST_SARS2 turned out to be 0.8082 and the Saint_MERS is recorded as 0. For the same compound, the Saint_SARS1 is given as 0.97 and the Saint_SARS2 is 0.64.

Turning to M-Q96HW7, the MIST_MERS was found to be 0, the MIST_SARS1 is on record as 0.8124, the MIST_SARS2 turned out to be 0.9433 and the Saint_MERS stood at 0. Besides, the Saint_SARS1 is 0.33 and the Saint_SARS2 is on record as 0.65.

A further experiment deals with SARS-CoV-1. To be noted: cited from earlier work.
Consider `COc1ccc2c(c1)c(CC(=O)O)c(C)n2C(=O)c1ccc(Cl)cc1` [indomethacin], for which the “Inhibition of SARS-CoV-1 in vitro (in words)” value is given as “similarly high levels of the drug were needed for inhibition”.

The subject of a further experiment is canine coronavirus. The settings on record: previous study (Amici et al. 2006); cited from earlier work.
As to `COc1ccc2c(c1)c(CC(=O)O)c(C)n2C(=O)c1ccc(Cl)cc1` [indomethacin], the “Efficacy against canine coronavirus in vivo (in words)” value is on record as “showed efficacy”.
